Measurements as given in patent US12570614B2, “Phenyl amino pyrimidine compounds and uses thereof” (GlaxoSmithKline LLC, priority 2007, dated 2026).

How the values were obtained:
[1] = test system: Ba/F3 TelJAK2 cells; assay: Subcutaneous tumour model of Ba/F3 TelJAK2 cells in nude mice; type: in vivo, mouse; settings: 5 mg/kg i.v. 3× weekly, after 14 days of dosing, t-test p<0.05
Method: Dosing commenced 11 days post-tumour cell inoculation, when tumours were palpable (mean tumour volume of 6 mm^3). Tumour dimensions were measured twice weekly.

[2] = test system: BaF3 TELJAK cells (BafT_J2); assay: Cellular screening, BaF3 TELJAK2 cells (Alamar Blue); type: cell-based; settings: Mus musculus, BaF3; 48-72 hr incubation; read-out: BafT_J2_IC50_μM
Method: (§1) For screening purposes, compounds were diluted in 96 well plates at a concentration of 20 μM. Plates were warmed at 37° C. for 30 minutes before the assay was performed.
A TEL/Jak2 fusion was generated by digestion of the TELPCR product with BamH I/Sal I restriction enzymes, digestion of the JAK2 PCR product with Sal I/Not I restriction enzymes, followed by ligation and subcloning of the ligation product into the mammalian expression Vector pTRE 2 (Clontech), which was prepared by digestion with BamH I—Not I restriction enzymes, to give the TEL/Jak2 fusion plasmid pTELJAK2.
(§2) The growth factor dependent myelomonocytic cell line BaF3 bearing the pTET-off plasmid (Clontech) was transfected with either pTELJAK2 or pTELJAK3, and the transfected cells were selected for growth-factor independent cell growth. The BaF3 wild-type cells were cultured in DMEM containing 10% FCS, 10% WEHI 3B conditioned medium. The BaF3 TELJAK cells ([…]) were cultured in DMEM 10% Tet-System Approved FBS (without WEHI 3B conditioned medium).
(§3) Cell suspensions were prepared by harvesting cells from culture (the cells used in this test were in late log phase growth with high viability.) Cells were diluted in the appropriate growth medium, as described above, to 1.1× final concentration (from 50,000 cell/mL to 200,000 cell/mL, depending on cell line).
(§4) Compounds to be tested were added (10 μL, 10× final concentration) to a flat bottomed 96-well plate. The cellular suspension (90 μL per well) was then added, and the plate incubated for 48-72 hr at 37° C., 5% CO2. Alamar Blue 10 μL per well was added and the plates returned to the incubator for a further 4-6 hours.
(§5) Result are given in table 2 where +++ is <1 μM, ++ is <5 μM and + is <20 μM

[3] = test system: BaF3 wild-type cells; assay: Cellular screening, BaF3 wild-type cells (Alamar Blue); type: cell-based; settings: Mus musculus, 48-72 hr incubation, read-out: BAF3wt_IC50_μM
Method: as §1, §2, §3
as §4, with “hours. The plates were then read at 544 nm.” for “hours.”
as §5

[4] = biological target: human JAK2 (Homo sapiens (Human), UniProt O60674); assay: JAK2 kinase domain Alphascreen enzyme screening; type: biochemical; settings: read-out: JAK2_IC50_nM
Method: (§6) For screening purposes, compounds (in 100% DMSO) were warmed at 37° C. for at least 20 minutes before use. A […] stock was initially made in assay buffer, where the final concentration of DMSO was 0.3%. The stocks were then diluted in 384 well Optiplates (Packard) where the final concentration of the compound was 5 μM.
The kinase domain of human JAK2 was amplified from U937 mRNA using the polymerase chain reaction with the following primers: […]
The JAK2 PCR products were cloned into the pDest20 destination vector (Gibco). The JAK2 plasmid was then transformed into competent DH10Bac cells (Gibco), and the recombinant baculovirus was prepared via Sf9 insect cell transfection.
(§7) Baculovirus preparations from each of the JAK family members were infected into one litre of […] (Spodoptera frugiperda) cells (Invitrogen) grown in SF900II serum free medium (Invitrogen) to a cell density of approximately 2×10^6 cells/ml. Cells were infected with virus at a cell culture to virus stock ratio of 20:1. Cells were harvested and lysed 48 hours post infection. The GST-tagged JAK kinase domains were purified by affinity chromatography on a GSH agarose column (Scientifix).
Alphascreen phosphotyrosine acceptor beads followed by streptavidin donor beads at a concentration of 1/100 in stop buffer were added to each well under subdued light and incubated for 2-3 hours. The Alphascreen plates were read on a Packard Fusion Alpha instrument

[5] = test system: CTLL2; assay: Cellular screening, CTLL2 cells (Alamar Blue); type: cell-based; settings: Mus musculus, CTLL-2; 48-72 hr incubation; read-out: CTLL2_IC50_μM
Method: as §1, §3
as §4, with “hours. The plates were then read at 544 nm.” for “hours.”
as §5

[6] = biological target: human JAK3 (Homo sapiens (Human), UniProt P52333); assay: JAK3 kinase domain Alphascreen enzyme screening; type: biochemical; settings: read-out: JAK3_ IC50_nM
Method: as §6
The kinase domain of human JAK3 was amplified from U937 mRNA using the polymerase chain reaction with the following primers: […]
The JAK3 PCR products were cloned into the pDest20 destination expression vector (Gibco). The JAK3 plasmid was then transformed into competent DH10Bac cells (Gibco), and the recombinant baculovirus was prepared via Sf9 insect cell transfection.
as §7
The compounds were then incubated with substrate in the presence of either […] ATP for 60 or 90 minutes. […] (final concentration 111 μM) or substrate-2 substrate with the sequence biotin-[…] [SEQ ID NO: 16] (final concentration 133 μM). Alphascreen phosphotyrosine acceptor beads followed by streptavidin donor beads at a concentration of 1/100 in stop buffer were added to each well under subdued light and incubated for 2-3 hours. The Alphascreen plates were read on a Packard Fusion Alpha instrument

human JAK2, sequence (O60674 849-1124): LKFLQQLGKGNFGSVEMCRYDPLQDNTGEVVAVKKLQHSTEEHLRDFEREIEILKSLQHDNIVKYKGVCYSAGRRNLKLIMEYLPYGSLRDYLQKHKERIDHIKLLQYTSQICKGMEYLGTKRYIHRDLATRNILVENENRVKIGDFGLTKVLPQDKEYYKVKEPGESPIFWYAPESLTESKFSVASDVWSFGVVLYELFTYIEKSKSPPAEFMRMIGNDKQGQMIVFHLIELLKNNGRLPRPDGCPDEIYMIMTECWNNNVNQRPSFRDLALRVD
human JAK3, sequence (P52333 822-1111): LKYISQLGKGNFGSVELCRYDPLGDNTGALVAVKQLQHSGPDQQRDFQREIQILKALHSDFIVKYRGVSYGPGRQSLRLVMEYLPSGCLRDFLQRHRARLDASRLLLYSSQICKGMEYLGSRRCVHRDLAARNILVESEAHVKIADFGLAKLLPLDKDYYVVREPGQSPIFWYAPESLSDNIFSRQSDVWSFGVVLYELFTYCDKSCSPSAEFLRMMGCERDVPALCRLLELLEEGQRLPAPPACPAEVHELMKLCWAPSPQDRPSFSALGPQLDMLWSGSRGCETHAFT

## CC(=O)O[C@H]1C(=O)[C@@]2(C)[C@H]([C@H](OC(=O)c3ccccc3)[C@]3(O)C[C@H](OC(=O)[C@H](O)[C@@H](NC(=O)c4ccccc4)c4ccccc4)C(C)=C1C3(C)C)[C@]1(OC(C)=O)CO[C@@H]1C[C@@H]2O [Taxol, reference compound]
[1]
  tumour volumes compared to Vehicle Control Treated Group: smaller tumour volumes

## N#CCNC(=O)c1ccc(-c2ccnc(Nc3ccc(N4CCC(CO)CC4)cc3)n2)cc1 [Compound 42, N-(cyanomethyl)-4-(2-(4-(4-(hydroxymethyl)piperidin-1-yl)phenylamino)pyrimidin-4-yl)benzamide]
[2]
  IC50: < 5000 nM
[3]
  IC50: < 5000 nM
[4]
  IC50: < 100 nM
[5]
  IC50: < 5000 nM
[6]
  IC50: < 500 nM

## CS(=O)(=O)N(CC#N)c1ccc(-c2ccnc(Nc3ccc(N4CCOCC4)cc3)n2)cc1 [Compound 31, N-(cyanomethyl)-N-(4-(2-(4-morpholinophenyl-amino)pyrimidin-4-yl)phenyl)methane-sulfonamide]
[2]
  IC50: < 5000 nM
[3]
  IC50: < 5000 nM
[4]
  IC50: < 100 nM
[5]
  IC50: < 5000 nM
[6]
  IC50: < 500 nM

## N#CCC(=O)Nc1ccc(-c2ccnc(Nc3ccc(N4CCOCC4)cc3)n2)cc1C(F)(F)F [Compound 76, 2-cyano-N-(4-(2-(4-morpholinophenyl-amino)pyrimidin-4-yl)-2-(trifluoromethyl)phenyl)acetamide]
[2]
  IC50: < 5000 nM
[3]
  IC50: < 5000 nM
[4]
  IC50: < 100 nM
[5]
  IC50: < 5000 nM
[6]
  IC50: < 1000 nM

## CS(=O)(=O)N(CC#N)c1ccc(-c2ccnc(Nc3ccc(N4CCOCC4)c(C#N)c3)n2)cc1 [Compound 82, N-(4-(2-(3-cyano-4-morpholinophenyl-amino)pyrimidin-4-yl)phenyl)-N-(cyanomethyl) methanesulfonamide]
[2]
  IC50: < 1000 nM
[3]
  IC50: < 5000 nM
[4]
  IC50: < 100 nM
[5]
  IC50: < 5000 nM
[6]
  IC50: > 1000 nM

## N#CCNC(=O)c1ccc(-c2ccnc(Nc3ccc(OC4CCNCC4)cc3)n2)cc1 [Compound 59, N-(cyanomethyl)-4-(2-(4-(piperidin-4-yloxy)phenylamino)pyrimidin-4-yl)benzamide]
[2]
  IC50: < 5000 nM
[3]
  IC50: < 1000 nM
[4]
  IC50: < 100 nM
[5]
  IC50: < 5000 nM
[6]
  IC50: < 500 nM

## COc1cc(Nc2nccc(-c3ccc(C(=O)NCC#N)cc3)n2)cc(OC)c1OC [Compound 20, N-(cyanomethyl)-4-(2-(3,4,5-trimethoxyphenyl-amino)pyrimidin-4-yl)benzamide]
[2]
  IC50: < 1000 nM
[3]
  IC50: < 1000 nM
[4]
  IC50: < 100 nM
[5]
  IC50: < 5000 nM
[6]
  IC50: < 100 nM

## CCN1CCC(Oc2ccc(Nc3nccc(-c4ccc(C(=O)NCC#N)cc4)n3)cc2)CC1 [Compound 80, N-(cyanomethyl)-4-(2-(4-(1-ethylpiperidin-4-yloxy)phenylamino)pyrimidin-4-yl)benzamide]
[2]
  IC50: < 1000 nM
[3]
  IC50: < 5000 nM
[4]
  IC50: < 100 nM
[5]
  IC50: < 5000 nM
[6]
  IC50: < 500 nM
